Among the data in patent US20230058189A1, “QUINOLIN-4-ONE AND 4(1H)-CINNOLINONE COMPOUNDS AND METHODS OF USING SAME” (Frequency Therapeutics, Inc., priority 2019, published 2023) are efflux ratio and Papp A→B values, retold here.

A word on the efflux ratio: it is a quotient of directional permeabilities that is used to spot active efflux. For orientation: Papp A→B means how fast a substance crosses the layer from the apical side. Lower therefore signals poor permeation.

The data set is described as follows: Caco-2 cell permeability assay. It counts as in vitro ADME. To be noted: human, pH 7.4, approximate values; for efflux ratio at 2 h, 10 µM: Caco-2, Papp (B-A)/Papp (A-B); for Papp A→B at 2 h, 10 μM: Caco-2, apical to basolateral. As for the experimental part: A Caco-2 cell permeability assay can be used for in vitro prediction of drug permeability and absorption, an important feature for a compound to be useful for methods described herein. The apparent permeability (Papp) of the compounds of the present disclosure were determined in Caco-2 cells to measure the rate of drug transport per surface area of the cell membrane. Further the efflux ratios of the compounds of the present disclosure were measured in Caco-2 cells to determine the apparent permeability coefficient in basolateral to apical direction with respect to the apparent permeability coefficient in apical to basolateral direction.
50 μL and 25 mL of cell culture medium were added to each well of the Transwell insert and reservoir, respectively. The HTS transwell plates were incubated at 37° C., 5% CO2 for 1 hour before cell seeding. Caco-2 cells were diluted to 6.86×10^5 cells/mL with culture medium and 50 μL of cell suspension were dispensed into the filter well of the 96-well HTS Transwell plate. Cells were cultivated for 14-18 days in a cell culture incubator at 37° C., 5% CO295% relative humidity. Cell culture medium was replaced every other day, beginning no later than 24 hours after initial plating.
Medium was removed from the reservoir and each Transwell insert and replaced with prewarmed fresh culture medium. Transepithelial electrical resistance (TEER) across the monolayer was measured using Millicell Epithelial Volt-Ohm measuring system (Millipore, USA). The Plate was returned to the incubator once the measurement was done. The TEER value was calculated according to the following equation: TEER measurement (ohms)×Area of membrane (cm^2)=TEER value (ohm·cm^2).
To prepare the HBSS (25 mM HEPES, pH 7.4), accurately weigh 5.958 g of HEPES and 0.35 g sodium hydrogen carbonate and add into 900 mL of pure water, then sonicate to dissolve the content. Transfer 100 mL of 10× HBSS into the solution, and place the solution on a stirrer, slowly adjust pH with sodium hydrate to 7.4, following with filtering. Add 6 μL of stock solution (10 mM) of test compound or control compound to 24 μL of DMSO into the same well to obtain 2 mM stock solutions. Transfer 3 μL of 2 mM solution into 597 μL of transport buffer in one 96 well plate to prepare the 10 μM compound working solution. Shake the plate at 1000 rpm for 10 min. The final concentration of DMSO in the incubation system was 0.5%. Metoprolol, erythromycin, and cimetidine were used as control compounds.
Assays can be conducted using Caco-2 cells to assay transport of a compound or composition For example, Caco-2 plates prepared as described above were removed from the incubator. Monolayers were washed twice with pre-warmed HBSS (25 mM HEPES, pH 7.4), then the plates were incubated at 37° C. for 30 minutes. To determine the rate of drug transport in the apical to basolateral direction, 108 μL of the working solution was added to the Transwell insert (apical compartment), and 8 μL sample was immediately transferred from the apical compartment to 72 μL transport buffer and 240 μL of acetonitrile containing IS (100 nM alprazolam, 200 nM caffeine and 100 nM tolbutamide) in a new 96-well plate as the initial donor sample (A-B). The samples were then vortexed at 1000 rpm for 10 minutes. The wells in the receiver plate (basolateral compartment) were filled with 300 μL of transport buffer. To determine the rate of drug transport in the basolateral to apical direction, 308 μL of the working solution were added to the receiver plate wells (basolateral compartment), and 8 μL sample was immediately transferred from the basolateral compartment to 72 μL transport buffer and 240 μL of acetonitrile containing IS (100 nM alprazolam, 200 nM caffeine and 100 nM tolbutamide) into a new 96-well plate as the initial donor sample (B-A), then Vortexed at 1000 rpm for 10 minutes. The Transwell insert (apical compartment) was filled with 100 μL of transport buffer. […]

With `CCn1cc(C(N)=O)c(=O)c2c(N)c(F)c(NCCc3ccccc3)cc21` [Compound I-66], the efflux ratio at 2 h, 10 µM was determined as 58 and the apparent permeability from apical to basolateral (Papp A→B) at 2 h, 10 μM came out at 1.8 ×10⁻⁶ cm/s.
Take `CCn1cc(C#N)c(=O)c2c(N)c(F)c(NCCc3ccccc3)cc21` [Compound I-67]: the efflux ratio at 2 h, 10 µM was 0.24 and the Papp A→B at 2 h, 10 μM stood at 2.2 ×10⁻⁶ cm/s.
With `CCn1cc(-c2nnn[nH]2)c(=O)c2c(N)c(F)c(NCCc3ccccc3)cc21` [Compound I-68], the efflux ratio at 2 h, 10 µM was found to be 0.63 and the apparent permeability from apical to basolateral (Papp A→B) at 2 h, 10 μM turned out to be 0.06 ×10⁻⁶ cm/s.
As for `CCn1cc(C(=O)O)c(=O)c2c(N)c(F)c(NC3CN(c4ccccc4)C3)cc21` [Compound I-69], the efflux ratio at 2 h, 10 µM is 0.78 and the Papp A→B at 2 h, 10 μM is 4.6 ×10⁻⁶ cm/s.
